For experiment [1], the target named is T1, Recombinant human KIF18A (1-467His-tagged) protein (Homo sapiens, UniProt Q8NI77).
T1 construct: Recombinant human KIF18A (1-467His-tagged) protein; His; made in house
As to the kind of experiment: KIF18A enzyme assay (microtubule-stimulated ATPase activity, ADP-Glo). The conditions noted are these: 30 nM KIF18A, 75 μM ATP, 30 μg/mL pig microtubules; read-out: Inhibitory activity against KIF18A IC50. It is filed as biochemical. In a few lines: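 Buffer 15 mM Tris pH 7.5, 10 mM MgCl2, 0.01% Pluronic F-68, 1 μM paclitaxel, 30 μg/mL pig microtubules; reactions at room temperature. IC50 from inhibition relative to DMSO.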
In general terms: In ADP-Glo the light output rises with the ADP produced.

Experiment [2] concerns HCT116 cells. Kind of experiment: In vitro anti-proliferative activity against HCT116 cells (intracellular ATP content, 72 h). It is filed as cell-based. The following applies: Homo sapiens, HCT-116, 72 h after dosing. The protocol: Biological Example 3. In Vitro Anti-Proliferative Activity of the Compounds of the Present Invention Against HCT116 Cells
HCT116 cells were seeded on a 384-well plate at 3000 cells/well. After overnight adherence culture, DMSO or the compounds serially 1:5-diluted from 5 μM were added. The viability of the cells was assessed 72 h after dosing by measuring the intracellular ATP content. The inhibition percentages of viable cells by the compounds were calculated by comparing with the DMSO group, and the IC 50 values were also calculated.

In experiment [3] the test system is HT-29 cells. Kind of experiment: In vitro anti-proliferative activity against HT-29 cells (intracellular ATP content, 72 h). It is filed as cell-based. The following applies: Homo sapiens, 72 h after dosing. The protocol:
Biological Example 2. In Vitro Anti-Proliferative Activity of the Compounds of the Present Invention Against HT-29 Cells
HT-29 cells were seeded on a 384-well plate at 3000 cells/well. After overnight adherence culture, DMSO or the compounds serially 1:5-diluted from 5 μM were added. The viability of the cells was assessed 72 h after dosing by measuring the intracellular ATP content. The inhibition percentages of viable cells by the compounds were calculated by comparing with the DMSO group, and the IC50 values were also calculated.

Experiment [4] relates to HT29 subcutaneous xenograft tumor. Kind of experiment: In vivo pharmacodynamic study, mouse HT29 subcutaneous xenograft tumor model. The conditions noted are these: for Tumor volume on day 1 of treatment / Tumor volume on day 28 of treatment / TGI (tumor growth inhibition): 80 mg/kg intragastric once daily; for Tumor volume on day 1 of treatment: baseline day 1; for TGI (tumor growth inhibition): day 28 vs day 1; for Inhibitory effect on HT29 mouse subcutaneous xenograft tumor (in words): 80 mg/kg, comparison with AMG650. Details: species or system BALB/c nude mice. The method, then: Biological Example 4. In Vivo Pharmacodynamic Study-Mouse HT29 Subcutaneous Xenograft Tumor Model
BALB/c nude mice were inoculated subcutaneously with 5×10^6 HT29 cells on the left dorsal side. After the tumors grew to 100-150 mm^3, the mice were randomly divided into the following groups for intragastric administration once daily: group 1: vehicle control group; group 2: compound 661 (80 mg/kg); group 3: compound 669 (80 mg/kg); group 4: compound 677 (80 mg/kg); group 5: compound 714 (80 mg/kg); group 6: compound 727 (80 mg/kg); group 7: compound 740 (80 mg/kg); and group 8: AMG650 (80 mg/kg). The tumor volume was measured twice weekly and at the end of treatment.

These results are taken from patent US20260158017A1, “KIF18A INHIBITOR” (WIGEN BIOMEDICINE TECHNOLOGY (SHANGHAI) CO., LTD., priority 2021, published 2026).

T1 sequence (Q8NI77 1-467): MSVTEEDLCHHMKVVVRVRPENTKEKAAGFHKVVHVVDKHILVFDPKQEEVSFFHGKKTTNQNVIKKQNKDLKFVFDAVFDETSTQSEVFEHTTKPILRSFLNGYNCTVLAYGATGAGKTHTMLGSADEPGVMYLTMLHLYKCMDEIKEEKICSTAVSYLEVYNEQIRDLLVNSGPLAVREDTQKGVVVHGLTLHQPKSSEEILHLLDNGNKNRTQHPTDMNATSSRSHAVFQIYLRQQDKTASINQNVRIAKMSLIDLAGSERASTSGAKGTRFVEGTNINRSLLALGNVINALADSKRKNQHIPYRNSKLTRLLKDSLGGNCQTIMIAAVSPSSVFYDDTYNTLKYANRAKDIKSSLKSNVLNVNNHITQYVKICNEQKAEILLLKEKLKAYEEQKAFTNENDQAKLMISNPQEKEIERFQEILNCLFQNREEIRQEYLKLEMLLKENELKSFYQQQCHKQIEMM
T1 sequence (P02550 whole entry partner): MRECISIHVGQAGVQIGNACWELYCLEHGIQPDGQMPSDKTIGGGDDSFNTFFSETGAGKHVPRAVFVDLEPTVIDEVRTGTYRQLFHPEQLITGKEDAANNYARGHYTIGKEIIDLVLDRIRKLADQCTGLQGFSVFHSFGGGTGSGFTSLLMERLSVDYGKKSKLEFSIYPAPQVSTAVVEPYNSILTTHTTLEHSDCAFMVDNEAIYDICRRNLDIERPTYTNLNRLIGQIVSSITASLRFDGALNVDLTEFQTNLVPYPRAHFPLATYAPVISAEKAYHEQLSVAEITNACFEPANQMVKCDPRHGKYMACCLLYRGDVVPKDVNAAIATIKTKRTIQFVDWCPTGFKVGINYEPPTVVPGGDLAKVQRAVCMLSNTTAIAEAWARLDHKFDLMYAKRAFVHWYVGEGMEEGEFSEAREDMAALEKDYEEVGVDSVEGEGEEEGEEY
T1 sequence (P02554 whole entry partner): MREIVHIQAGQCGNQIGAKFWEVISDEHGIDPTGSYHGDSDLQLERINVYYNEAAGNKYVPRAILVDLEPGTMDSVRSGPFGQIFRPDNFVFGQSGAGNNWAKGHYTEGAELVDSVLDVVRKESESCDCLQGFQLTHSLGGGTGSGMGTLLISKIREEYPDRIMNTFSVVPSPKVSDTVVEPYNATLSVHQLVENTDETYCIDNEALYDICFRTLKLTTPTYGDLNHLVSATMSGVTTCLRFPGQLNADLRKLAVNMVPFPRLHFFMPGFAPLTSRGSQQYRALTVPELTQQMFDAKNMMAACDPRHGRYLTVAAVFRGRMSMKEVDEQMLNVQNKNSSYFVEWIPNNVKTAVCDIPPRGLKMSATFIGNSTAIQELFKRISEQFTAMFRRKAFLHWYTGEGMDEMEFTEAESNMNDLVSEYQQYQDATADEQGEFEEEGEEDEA

Broadly, the IC50 is the point on the concentration scale where inhibition reaches its midpoint. As for `CSc1ccc(NC(=O)c2ccc(NS(=O)(=O)CCO)cc2N2CCC3(CC2)CC3)nc1N1CCC(F)(F)CC1` [Compound 593], the IC50 in experiment [1] was at most 100 nM; in experiment [2], above 10000 nM; in experiment [3], 97.9 nM.

On to `COc1ccc(NC(=O)c2cnc(S(=O)(=O)NCCO)cc2N2CCC3(CC2)CC3)nc1N1CCC(F)(F)CC1` [Compound 305], for which the figures for the IC50 in experiment [1], in experiment [2] and in experiment [3] were at most 100 nM, above 10000 nM and 40.4 nM, respectively.

Regarding `COc1ccc(NC(=O)c2ccc(NS(=O)(=O)CCO)cc2N2CCC3(CC2)CC3)nc1N1CCC2(CC2)C1` [Compound 262], the IC50 in experiment [1] was at most 100 nM; in experiment [2], above 10000 nM; in experiment [3], 242 nM.

On to `O=C(Nc1ccc([N+](=O)[O-])c(OC2CCC2)c1)c1ccc(NS(=O)(=O)CCO)cc1N1CCC2(CC1)CC2` [Compound 7], for which the figures for the IC50 in experiment [1], in experiment [2] and in experiment [3] were at most 100 nM, above 10000 nM and 339 nM, respectively.

On to `COc1ccc(NC(=O)c2ccc(NS(=O)(=O)CCO)cc2N2CCC3(CC2)CC3)nc1OC1CCC1` [Compound 263], for which the IC50 in experiment [1] is at most 100 nM; in experiment [2], above 10000 nM; in experiment [3], 85.7 nM.

As to `COc1ccc(NC(=O)c2ccc(NS(=O)(=O)CCO)cc2N2CCC3(CC2)CC3)nc1N1CCO[C@@H](C)C1` [Compound 259], the IC50 was at most 100 nM in experiment [1], above 10000 nM in experiment [2] and 282 nM in experiment [3].

As to `O=C(Nc1ccc(OCF)c(N2CCC(F)(F)CC2)c1)c1ccc(NS(=O)(=O)CCO)cc1N1CCC2(CC1)CC2` [Compound 385], the IC50 in experiment [1] is at most 100 nM; in experiment [2], above 10000 nM; in experiment [3], 146 nM.

For the molecule `COc1ccc(C(=O)Nc2ccc(S(=O)(=O)NCCO)cc2N2CCC3(CC2)CC3)nc1N1CCC(F)(F)CC1` [Compound 337], the IC50 in experiment [1] was at most 100 nM; in experiment [2], above 10000 nM; in experiment [3], 48.8 nM.

On to `O=C(Nc1ccc([N+](=O)[O-])c(N2CC(F)(F)C2)c1)c1ccc(NS(=O)(=O)CCO)cc1N1CCC2(CC1)CC2` [Compound 4], for which the values for the IC50 in experiment [1], in experiment [2] and in experiment [3] were at most 100 nM, above 10000 nM and 191 nM, respectively.

Turning to `COc1ccc(NC(=O)c2cnc(NS(=O)(=O)CCO)cc2N2CCC3(CC2)CC3)nc1N1CCC(F)(F)CC1` [Compound 289], the IC50 in experiment [1] is at most 100 nM; in experiment [2] it was above 10000 nM; in experiment [3] it was 27.7 nM.

Regarding `COc1ccc(C(=O)Nc2ccc(NS(=O)(=O)CCOC(=O)[C@@H](N)C(C)C)cc2N2CCC3(CC2)CC3)nc1N1CCC(F)(F)CC1` [Compound 727], in experiment [4], the “Tumor volume on day 1 of treatment” value is 121 mm^3, the “Tumor volume on day 28 of treatment” value is 519 mm^3, the “TGI (tumor growth inhibition)” value was 73% and the “Inhibitory effect on HT29 mouse subcutaneous xenograft tumor (in words)” value is “stronger inhibitory effects”.

For `COc1ccc(NC(=O)c2ccc(S(=O)(=O)NCCOC(=O)[C@@H](N)C(C)C)cc2N2CCC3(CC2)CC3)nc1N1CCC(F)(F)CC1` [Compound 740], in experiment [4], the “Tumor volume on day 1 of treatment” value was determined as 121 mm^3, the “Tumor volume on day 28 of treatment” value is 605 mm^3, the “TGI (tumor growth inhibition)” value is 67% and the “Inhibitory effect on HT29 mouse subcutaneous xenograft tumor (in words)” value was “stronger inhibitory effects”.

`C[C@H]1CN(c2cc(NC(=O)c3ccc(NS(=O)(=O)CCO)cc3N3CCC4(CC3)CC4)ccc2[N+](=O)[O-])CCO1` [Compound 3]: the IC50 in experiment [1] was at most 100 nM; in experiment [2] it was above 10000 nM; in experiment [3] it was 1600 nM.

As for `O=C(Nc1ccc([N+](=O)[O-])c(N2CCC3(CC3)C2)c1)c1ccc(NS(=O)(=O)CCO)cc1N1CCC2(CC1)CC2` [Compound 6], the IC50 in experiment [1] was at most 100 nM; in experiment [2], above 10000 nM; in experiment [3], 826 nM.

Take `COc1ccc(NC(=O)c2ccc(NS(=O)(=O)CCO)cc2N2CCC3(CC2)CC3)nc1N1CCO[C@H](C)C1` [Compound 258]: the IC50 in experiment [1] was at most 100 nM; in experiment [2], above 10000 nM; in experiment [3], 190 nM.

For `COc1ccc(NC(=O)c2ccc(S(=O)(=O)NCCOC(C)=O)cc2N2CCC3(CC2)CC3)nc1N1CCC(F)(F)CC1` [Compound 677], in experiment [4], the “Tumor volume on day 1 of treatment” value was determined as 121 mm^3, the “Tumor volume on day 28 of treatment” value is on record as 797 mm^3 and the “TGI (tumor growth inhibition)” value came to 55%.

Regarding `COc1ccc(NC(=O)c2ccc(NS(=O)(=O)CCO)cc2N2CCC3(CC2)CC3)nc1N1CC(F)(F)C1` [Compound 260], the half-maximal inhibitory concentration (IC50) is at most 100 nM in experiment [1], above 10000 nM in experiment [2] and 55.2 nM in experiment [3].

In the case of `O=C(Nc1ccc([N+](=O)[O-])c(N2CCC(F)(F)CC2)c1)c1cnc(NS(=O)(=O)CCO)cc1N1CCC2(CC1)CC2` [Compound 97], the results for the IC50 in experiment [1], in experiment [2] and in experiment [3] were at most 100 nM, above 10000 nM and above 2000 nM, respectively.

Take `COc1ccc(NC(=O)c2ccc(NS(=O)(=O)CCO)cc2N2CCC3(CC2)CC3)nc1NCCC(F)(F)F` [Compound 835]: the IC50 is above 10000 nM in experiment [2] and 70.7 nM in experiment [3].

Regarding `CCOc1ccc(NC(=O)c2ccc(NS(=O)(=O)CCO)cc2N2CCC3(CC2)CC3)nc1N1CCC(F)(F)CC1` [Compound 702], the IC50 was above 10000 nM in experiment [2] and 71.2 nM in experiment [3].

With `CN(C)c1ccc(NC(=O)c2ccc(NS(=O)(=O)CCO)cc2N2CCC3(CC2)CC3)nc1N1CCC(F)(F)CC1` [Compound 647], the IC50 was above 10000 nM in experiment [2] and 334 nM in experiment [3].

For the molecule `O=C(Nc1ccc([N+](=O)[O-])c(N2CCC(F)(F)CC2)n1)c1cnc(NS(=O)(=O)CCO)cc1N1CCC2(CC1)CC2` [Compound 129], the IC50 in experiment [1] is at most 100 nM; in experiment [2] it was above 10000 nM; in experiment [3], 134 nM.

As for `COc1ccc(NC(=O)c2ccc(NS(=O)(=O)CCO)cc2N2CCC3(CC2)CC3)nc1OCCC(F)(F)F` [Compound 261], the IC50 in experiment [1] was at most 100 nM; in experiment [2] it was above 10000 nM; in experiment [3], 75.7 nM.

For the molecule `O=C(Nc1ccc([N+](=O)[O-])c(N2CCC(F)(F)CC2)c1)c1ccc(NS(=O)(=O)CCO)cc1N1CCC2(CC1)CC2` [Compound 1], the IC50 is at most 100 nM in experiment [1], above 10000 nM in experiment [2] and 75.3 nM in experiment [3].

For the molecule `COc1ccc(C(=O)Nc2ccc(NS(=O)(=O)CCOC(C)=O)cc2N2CCC3(CC2)CC3)nc1N1CCC(F)(F)CC1` [Compound 669], in experiment [4], the “Tumor volume on day 1 of treatment” value is on record as 121 mm^3, the “Tumor volume on day 28 of treatment” value worked out at 1158 mm^3 and the “TGI (tumor growth inhibition)” value is 30%. For the same molecule, in experiment [2], the IC50 is above 10000 nM. Moreover, the IC50 in experiment [3] was determined as 25.8 nM.
